Test systems include DLD-1 colon; DMS 114 small cell lung; DMS 273 small cell lung; HOP-18 NSCLC; KM20L2 colon; LXFL 529 NSCLC; M19-MEL melanoma; SNB-78 CNS; XF 498 CNS; RXF-631 renal.
What all share (assay): NCI-60 cell line screen, 48 h

Drawing on PubChem BioAssay (NCI), this text covers TGI for eight molecules.

Molecules are shown by their SMILES.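 Values below derive from 48-hour exposures of cells grown in 96-well plates, with endpoints linearly interpolated between the two concentrations bracketing the appropriate inhibition level. Definition used: TGI = concentration required for complete inhibition of growth.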

For `COc1ccc(N2C(=O)C3c4[nH]c5ccccc5c4C4CC(C)(C)CC(C)(C)C4C3C2=O)cc1` (stereo unspecified), the TGI in the experiment on DLD-1 colon is above 100 µM; in the experiment with DMS 114 small cell lung, 97.7 µM; in the experiment with DMS 273 small cell lung it was 23.8 µM; with HOP-18 NSCLC it was 36.5 µM; with KM20L2 colon, above 100 µM; with LXFL 529 NSCLC, 27.7 µM. Further, the TGI with M19-MEL melanoma is 33.7 µM; with SNB-78 CNS, 55.3 µM; with XF 498 CNS it was 36.8 µM.

As for `CC(c1ccc2c(c1)CCC1C2CC2OC23CC=CC(=O)[C@]13C)C1C[C@]2(C)O[C@]2(C)[C@H](O)O1` (stereo partly specified), the TGI with DMS 114 small cell lung was 4.97 µM; in the experiment on DMS 273 small cell lung it was above 100 µM; with KM20L2 colon it was above 100 µM; with LXFL 529 NSCLC, above 100 µM; in the experiment with M19-MEL melanoma it was above 100 µM; in the experiment on XF 498 CNS, above 100 µM.

As for `COc1ccc2c(=O)cc(-c3ccc(OC)c(OC)c3OC)oc2c1`, the TGI is above 100 µM in the experiment on DLD-1 colon; above 100 µM in the experiment on DMS 114 small cell lung; 77.3 µM with KM20L2 colon; above 100 µM in the experiment with LXFL 529 NSCLC; above 100 µM with M19-MEL melanoma; above 100 µM with RXF-631 renal. The molecule further registered a TGI in the experiment on XF 498 CNS above 100 µM.

In the case of `O=C1Cc2nc(CO)c(CO)c(CO)c2CO1`, the TGI in the experiment with DLD-1 colon, with DMS 114 small cell lung, with DMS 273 small cell lung, with HOP-18 NSCLC, with KM20L2 colon and in the experiment on LXFL 529 NSCLC was above 100 µM each time. Moreover, the TGI in the experiment with M19-MEL melanoma and in the experiment with SNB-78 CNS was above 100 µM each time.

On to `CC[C@]12C=CCN3CCC4(c5cc([C@@]6(C(=O)OC)CC7CN(CCc8c6[nH]c6ccccc86)C[C@@H]6CCCC[C@H]76)c(OC)cc5N(C)C4[C@](O)(C(=O)OC)C1OC(C)=O)[C@@H]32` (stereo partly specified), for which the TGI in the experiment with DLD-1 colon was 13.8 µM; in the experiment with DMS 114 small cell lung, below 0.01 µM; in the experiment with LXFL 529 NSCLC it was 1.71 µM; in the experiment with M19-MEL melanoma, 16.3 µM; in the experiment on SNB-78 CNS, 19.9 µM; in the experiment on XF 498 CNS, 3.79 µM.

With `O=c1[nH]c(=O)n(C2CC(O)C(CO)O2)cc1C(F)(C(F)(F)F)C(F)(F)F` (stereo unspecified), the TGI with DLD-1 colon, in the experiment with DMS 114 small cell lung, in the experiment on DMS 273 small cell lung, with HOP-18 NSCLC, in the experiment with KM20L2 colon and in the experiment with LXFL 529 NSCLC was above 100 µM throughout. Besides, the TGI in the experiment on M19-MEL melanoma, in the experiment with SNB-78 CNS and in the experiment with XF 498 CNS was above 100 µM each time.

With `COC1(C)C(=O)N2C1N(C(=O)OC(C)(C)C)CC2(C)C` (stereo unspecified), the TGI in the experiment with DLD-1 colon, in the experiment on DMS 114 small cell lung, with DMS 273 small cell lung, in the experiment with HOP-18 NSCLC, in the experiment on KM20L2 colon and in the experiment with LXFL 529 NSCLC was above 100 µM throughout. Also, the TGI with M19-MEL melanoma and in the experiment on SNB-78 CNS was above 100 µM in each case.

`c1cc2nnsc2s1`: the TGI with DLD-1 colon, in the experiment with DMS 273 small cell lung, in the experiment with HOP-18 NSCLC, in the experiment with KM20L2 colon, in the experiment on LXFL 529 NSCLC and in the experiment with M19-MEL melanoma was above 100 µM in each case. The TGI in the experiment on SNB-78 CNS and in the experiment with XF 498 CNS was above 100 µM throughout.
